Assay results as given in the pKa sets of Baltruschat and Czodrowski (2020).
Where “and” joins values, the source holds several entries; their conditions need not be identical. Equal values may be shown once.

Settings: acidic group

| SMILES | pKa |
| --- | --- |
| O=C1CC(S)C(=O)N1 (configuration not stated) | 6.65 |
| CC(c1cccc(C(F)(F)F)c1)[N+](=O)[O-] (configuration not stated) | 6.96 |
| Cc1cc(O)cc(C)c1C#N | 8.21 |
| C=CCC1(C2=CCCCC2)C(=O)NC(=S)NC1=O | 7.09 |
| C=C[C@]1(O)C[NH+]2CC[C@H]1C[C@H]2[C@H](O)c1cc(O)[nH+]c2ccccc12 | 2.76 |
| CCc1cccc2ccc(O)cc12 | 9.54 |
| Nc1ncnc2[nH]cnc12 | 9.86 |
| O=C(O)[C@@H]1CC[C@H](C(=O)[O-])[Se]1 | 4.55 |
| O=C(O)c1ccc2ccccc2c1 | 4.2 |
| C[C@H]1O[C@H](O[C@H]2CC[C@H]([n+]3ccc(N)nc3O)O[C@@H]2C)[C@H](O)[C@@H](O)[C@@H]1[NH+](C)C | 3.9 |
| CCCOc1ccccc1C(=O)O | 4.24 |
| Oc1cccc(Cl)c1 | 8.96 |
| NNC(=O)C(F)F | 9.66 |
| CC(C)(C)c1cc(/C=C/Cl)cc(C(C)(C)C)c1O | 11.8 |
| CC1(C)CC(O)[N+](C)(C)C1 (configuration not stated) | 8.7 |
| N#CC(C#N)=NNc1c(Cl)cccc1Cl | 4.7 |
| Cc1cc(O)c(=O)ccc1Br | 6.6 |
| [NH3+]CCCCCC#CC#CCCC(=O)O | 4.17 |
| Oc1ccc(Nc2ccc(O)cc2)cc1 | 9.44 |
| CC1=NS(=O)(=O)c2cc(Cl)ccc2N1 | 8.62 |
| Cc1c[nH]cc1C(=O)O | 5.65 |
| O=C(c1ccccc1)c1cccc([N+](=O)[O-])c1C(=O)O | 2.39 |
| O=[PH](O)c1ccccc1 | 1.63 |
| OCCC[n+]1cc(Br)c2ccccc2c1 | 12 |
| [O-]c1ccccc1O | 11.6 |

| SMILES | pKa |
| --- | --- |
| [NH3+]CCNC(=S)S | 2 |
| Oc1cc[nH+]cc1O | 3.6 |
| Cc1cc(C(F)(F)F)n[nH]1 | 12.3 |
| Cn1c(N)nc2nc[nH]c2c1=O | 10.4 |
| O=C(O)C(=O)c1ccccc1 | 1.22 |
| O=C(O)c1cscn1 | 3.64 |
| NC(=O)C1CCCCN1 (configuration not stated) | 8.9 |
| Nc1nc(C(F)(F)F)c2[nH]cnc2n1 | 8.87 |
| c1ccc(CNc2ncnc3[nH]ncc23)cc1 | 10.9 |
| Cc1cc(O)nn1-c1ccccc1C(=O)[O-] | 12.2 |
| Nc1nc(O)[n+]([C@@H]2C[C@@H](O)[C@H](CO)O2)cc1CO | 3.55 |
| O=C(O)C1CC1 | 4.83 |
| Oc1ccc2cccc(-c3ccccc3)c2c1 | 9.38 |
| C[NH2+]CCCC(=O)O | 4.03 |
| Oc1c(Cl)cccc1Cl | 6.8 |
| O=C(O)C[N+](=O)[O-] | 1.63 |
| N#CSc1ccc(O)cc1 | 8.57 |
| CC[NH2+]CCCC(=O)O | 3.92 |
| CCP(=O)(CC)CC(C)=O | 11.9 |
| NC(=O)NOCC(=O)O | 2.6 |
| Cc1ccc(C(=O)O)c(Cl)c1 | 3.27 |
| Cc1csc(-c2ccc(NS(=O)(=O)c3ccc(N)cc3)cc2)n1 | 8.5 |
| COC(=O)CS | 7.57 |
| O=C(/C=N/O)CCl | 7.9 |
| CC(=O)Nc1nnn[nH]1 | 4.53 |

| SMILES | pKa |
| --- | --- |
| Nc1cccc2c(O)cccc12 | 10.3 |
| Cc1ccc2[nH]nnc2c1 | 8.9 |
| O=C(O)CCCc1cccs1 | 4.54 |
| O=Cc1cc(Cl)ccc1O | 7.4 |
| Cc1ccc(S(N)(=O)=O)cc1C | 9.62 |
| C/C(=N\O)C(=O)CO | 9.16 |
| CCC[Se](=O)O | 5.25 |
| O=C(O)c1cnccn1 | 2.7 |
| CC(C)c1cccc(=O)c(O)c1Br | 6.68 |
| O=C(O)c1c(Br)cccc1[N+](=O)[O-] | 1.37 |
| CCCCNC(O)=S | 0.67 |
| CC(C)(C)Cc1ccccc1O | 10.7 |
| C[C@H]1CC[C@H](C(=O)O)CC1 | 4.89 |
| C1COCCOCc2n[nH]c(n2)COCCOCCO1 | 9.55 |
| C[NH+]1C[C@@H](C(=O)O)C[C@@]2(O)c3cccc4[nH]cc(c34)C[C@H]12 | 3.38 |
| ONc1ccnc2ccccc12 | 6.76 |
| CCCCOC(=O)c1ccc(O)cc1 | 8.34 |
| C[N+]1(CCCCC(=O)O)CCCCC1 | 4.33 |
| Cc1cc(C)c2cccc(O)c2n1 | 10.6 |
| O=C(Nc1ccccc1)ONC(=O)c1ccccc1 | 6.4 |
| CN(C)c1cccc2c(S(N)(=O)=O)cccc12 | 9.9 |
| Cc1ccc(I)cc1C(=O)O | 3.62 |
| CC(C#N)CC(=O)O (configuration not stated) | 3.95 |

Same assay, conditions: basic group

| SMILES | pKa |
| --- | --- |
| Cc1nc2ncccc2[nH]1 | 4.6 |
| NCC(=O)O | 9.67 |
| C[NH+]1CCN(C(c2ccccc2)c2ccccc2)CC1 | 2.16 |
| CCc1c(C)c[nH]c1C | 3.19 |
| COc1cncnc1[O-] | 8.6 |
| CCS[C@@H]1C(O)C2CC(=O)CC1N2C (some centres not stated) | 4.9 and 5.4 |
| [O-]c1nccc2nccnc12 | 11.1 |
| CN(C)c1ccc(/N=N/c2ccccc2)cc1 | 2.85 |
| Nc1nc([O-])c2ncn([C@@H]3C=C[C@H](CO)C3)c2n1 | 9.68 |
| Nc1ncnc2[nH]cnc12 | 4.26 |
| O=[N+]([O-])c1ccc([O-])c(CN2CCCCC2)c1 | 10.5 |
| c1c[nH]c(P(c2ncc[nH]2)c2ncc[nH]2)n1 | 7.44 |
| C=CC(C)(C)Nc1ccccc1 | 4.88 |
| CC1=[NH+]c2ccccc2/C1=C/C=C1\Cc2ccccc2N1C | 1.22 |
| Nc1cccc2cc([N+](=O)[O-])ccc12 | 3.15 |
| Cc1nc(N)c2ncsc2n1 | 4.56 |
| CSc1nc(C)cc(=O)n1C | 0.9 |
| CCOc1ccc2nc3c(c(N4CCOCC4)c2c1)CCC3 | 7.11 |
| NCCCCCC(=O)[O-] | 10.8 |
| Nc1ccc(/C=C/c2cc(N)c3ccccc3n2)cc1 | 9.5 |
| c1ccc(-c2cnc3c(ccc4cccnc43)c2)cc1 | 4.82 |
| COc1ccc(OC)nn1 | 1.61 |

| SMILES | pKa |
| --- | --- |
| Cc1ncnc2c1NCCN2 | 6.74 |
| CC(C)(C)[C@]1(O)CCN2C[C@@H](c3ccccc3)c3ccccc3[C@@H]2C1 | 7.03 |
| N#CC(C#N)=NNc1c(Cl)cccc1Cl | -0.67 |
| c1ccc2c(c1)CNCCCNCc1ccccc1OCCO2 | 9.82 |
| [O-]c1ccnnc1 | 8.68 |
| O=[N+]([O-])c1ccc(NO)cc1 | 0.65 |
| CC1NOCc2ccccc21 (configuration not stated) | 3.7 |
| CCNc1nc(Cl)nc(NC(C)C)n1 | 1.61 |
| Clc1cncc(Cl)c1 | 0.55 |
| CC(C)(N)c1ccccc1 | 10.4 |
| Nc1cc(Br)cc(Br)c1 | 2.49 |
| CC1(C)CC(NCCO)CC(C)(C)[NH2+]1 | 7.42 |
| c1ccc(N=C(Nc2ccccc2)Nc2ccccc2)cc1 | 9.1 |
| C#CCCCCN(C)C | 9.24 |
| Cc1cc(-n2nc(C)cc2C)[nH]n1 | 2.23 |
| C[NH+](C)CCNCC[NH3+] | 4.36 |
| CCCCCCCCNCCC(=O)[O-] | 10.6 |
| Cc1cc(C(F)(F)F)n[nH]1 | -0.5 |
| CCOCCn1c(CN2CCC[NH+](CCCCn3cccn3)CC2)nc2ccccc21 | 4.9 |
| Cn1c(N)nc2nc[nH]c2c1=O | 3.2 |
| NOCc1ccc([N+](=O)[O-])cc1 | 3.96 |
| CCCCCCCCCCCCCCCN | 10.6 |

| SMILES | pKa |
| --- | --- |
| O=C(O)c1cscn1 | 2.9 |
| N/C(=N\O)C([NH3+])c1ccccc1 (configuration not stated) | 2.3 |
| Cc1cc(NCCC[NH+](C)C)c2c([N+](=O)[O-])cccc2n1 | 6.41 |
| Nc1nc(C(F)(F)F)c2[nH]cnc2n1 | 1.85 |
| Cc1ccc(N)cc1C[NH3+] | 4.67 |
| c1ccc(CNc2ncnc3[nH]ncc23)cc1 | 4.16 |
| CNCCC[NH2+]C | 8.68 |
| Cc1cccc(NCCS)c1 | 4.68 |
| CC1=CSC2=NCCCN12 | 10.3 |
| CN1CCN(C(=O)c2ccccc2)CC1 | 6.78 |
| Cc1ncc(C[NH3+])c(N)n1 | 4 |
| N[C@H]1C[C@H]2CCCC[C@@H]2C[C@@H]1[NH3+] | 6.68 |
| Nc1ccc(-c2cnc(-c3ccc(Br)cc3)o2)cc1 | 3.51 |
| Cn1cnc2cnc([O-])nc21 | 9.19 |
| O=Cc1cc(-c2ccccc2)nnc1NCCN1CCOCC1 | 6.89 |
| CCCn1nnnc1N | 1.8 |
| CNN | 7.87 |
| Nc1cccc2nccnc12 | 2.62 |
| Cc1cccc2cccnc12 | 4.87 |
| CSCc1cccc(CSC)n1 | 4.19 |
| CSc1cc(C)ncn1 | 3.25 |
| C=CCN(C)C | 8.72 |

| SMILES | pKa |
| --- | --- |
| CCN(CC)Cc1cn2nc(-c3ccccc3)cc(C)c2n1 | 8.79 |
| O=S(=O)([O-])c1ccncc1 | 3.44 |
| C[C@H]1C[C@@]23[C@@H]4CCCN2CCC[C@H]3[C@@H](O)C[C@H]4C1=O | 9.13 |
| CCN(CC)CC(=O)[O-] | 10.5 |
| CC(C)[NH+]1CCC(NN)CC1 | 5.75 |
| CCN(CC)CC(=O)NC1CCc2ccccc21 (configuration not stated) | 8.19 |
| CC[NH+](CC)CCCC(C)Nc1ccnc2cc(Br)ccc12 (configuration not stated) | 8.1 |
| Cn1c(CBr)nc2c(O)ccc(O)c21 | 3.99 |
| Nc1c(Br)cccc1Br | 0.36 |
| CCc1ccc(C(=O)[O-])nc1 | 5.86 |
| Nc1ccc(N)c(N)c1 | 6.1 |
| Nc1cccc2c(O)cccc12 | 4.15 |
| CC(C)CN(C)C | 9.91 |
| CC(CN(C)C)N(C)C (configuration not stated) | 9.49 |
| [O-]c1ccc(F)cc1CN1CCCCC1 | 11.3 |
| NCCCc1ccncc1 | 9.98 |
| [O-]c1cc2nc(c1)COCCOCCSCCOCCOC2 | 10.1 |
| C=C(C)C(=O)OCCNCCCC | 9.12 |
| O=C(O)c1cnccn1 | -0.7 |
| Cc1ccc2nc3c(c(N4CCOCC4)c2c1)CCC3 | 7.18 |
| CCCCNc1ccnc([S-])n1 | 11.1 |
| C1COCCOCc2n[nH]c(n2)COCCOCCO1 | 2.36 |

| SMILES | pKa |
| --- | --- |
| CCC(O)CN(CC)CCO (configuration not stated) | 9.1 |
| C[C@H](N)[C@H](C)[NH3+] | 6.79 |
| NC(C[NH3+])C[NH3+] | 3.72 |
| Cc1cn2nc(-c3ccccc3)cc(C)c2n1 | 5.3 |
| Cc1cc(C)c2cccc(O)c2n1 | 6.2 |
| CCNC(=O)c1ccccn1 | 2.4 |
| COc1ccc(S(=O)(=O)NCCN2CCOCC2)c(OC)c1OC | 6.16 |
| NC[C@@H](O)[C@H]1NC(N)=[NH+][C@@H]1C(=O)[O-] | 9.3 |
| N/C(CC([NH3+])c1ccccc1)=N\O (configuration not stated) | 3.75 |
| CC1=C(CC(C)NCC(O)c2ccc(F)cc2)CCC1(C)C (configuration not stated) | 8.51 |
| CN(C)c1cccc2c(S(N)(=O)=O)cccc12 | 3.8 |
| CNc1nccn2cc(-c3ccc(S(C)=O)cc3OC)nc12 (configuration not stated) | 5.36 |
| CCN(CC)CCCCC#N | 10.1 |
| CCCSC(=N)c1ccccc1 | 8.1 |
| CCN(C)N | 7.3 |
| NCc1cc(N)cc(Cl)c1 | 9.54 |
| c1coc(-c2ccncc2)c1 | 5.6 |
| CCc1ccccn1 | 5.98 |
| CN[C@H]1C[C@]1(C)[NH2+]C | 5.52 |
| O=P([O-])([O-])C(NCc1cccnc1)c1ccccc1[O-] (configuration not stated) | 12.2 |
| COC(=O)c1ccc2ccccc2n1 | 1.75 |
